Literature values, collected in patent publication US20060111442A1, “Use of methyl pyruvate to increase cellular energy production downstream of glycolysis for the PARP-1 ablation of HIV without necrotic cell death caused by continuous, chronic PARP-1 activation through the concomitant depletion of ATP and NAD” (priority 2004, published 2006).

How the values were obtained:
[1] = tested on: PDK4; conditions: control and high-fat-fed rats
[2] = tested on: PDK4; conditions: feeding
[3] = tested on: hepatic stellate cells (HSC); conditions: 10 microm 15dPGJ(2); 0.1 approximately 10 microm BRL49653; WY14643 >100 microm, not <10 microm
[4] = tested on: guinea-pig cerebral cortical synaptosomes
[5] = tested on: mGPDH-deficient islets; conditions: both NADH shuttles halted
[6] = tested on: Na(+)-K(+)-ATPase; conditions: 10 microM
[7] = 1 mmol.kg-1.d-1, 7 d; P<0.01

For `Cc1cccc(Nc2cc(Cl)nc(SCC(=O)O)n2)c1C` [WY14643], the “hepatic PDK4 protein” value [1] is listed as “significantly increased PDK4 protein”, the “pyruvate dehydrogenase kinase activity, PDK4 protein, PDK4 mRNA in gastrocnemius muscle” value [2] is listed as “induced large increases” and the “HSC DNA and collagen synthesis” value [3] is listed as “inhibited”.
In the case of `NOCC(=O)O` [amino-oxyacetic acid], the “negative shift in the cytosolic NAD+/NADH redox potential” value [4] is listed as 26 mV and the glucose-induced insulin secretion [5] is listed as “almost completely abrogated”.
For `C[C@@H]1O[C@@H](O[C@H]2C[C@@H](O)[C@]3(CO)[C@H]4[C@H](O)C[C@]5(C)[C@@H](C6=CC(=O)OC6)CC[C@]5(O)[C@@H]4CC[C@]3(O)C2)[C@H](O)[C@H](O)[C@H]1O` [ouabain], the “glycolysis and lactate production” value [6] is given as “decreased glycolysis and lactate production”.
In the case of `CCO[C@@H](Cc1ccc(OCCc2ccc(OS(C)(=O)=O)cc2)cc1)C(=O)O` [tesaglitazar], the “insulin sensitivity (glucose infusion rate during hyperinsulinemic-euglycemic clamp)” value [7] is listed as “improved the insulin sensitivity”.
